For orientation: GI50 means the concentration at which growth is held to half of that of the control. Broadly, the TGI is the concentration at which net growth stops.

Among the data in PubChem BioAssay (NCI) are GI50 and TGI values, retold here.

“And” between values parts separate entries of the source, which are not always exact repeats. Identical values can stand only once.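 Compound exposure: 48 hours, 5 concentrations, 96-well plates. Abbreviation: GI50, concentration required for 50% inhibition of growth. TGI is the concentration that stops growth completely.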

Among the test systems are MDA-MB-468 breast; CCRF-CEM leukemia; SK-MEL-5 melanoma; EKVX NSCLC; M14 melanoma; LOX IMVI melanoma; HL-60(TB) leukemia; NCI/ADR-RES ovarian; T-47D breast; SK-OV-3 ovarian; UO-31 renal; CAKI-1 renal; BT-549 breast; MOLT-4 leukemia; OVCAR-5 ovarian; MALME-3M melanoma; SF-295 CNS; NCI-H522 lung; A549 NSCLC; HCC-2998 colon; SR leukemia; HS 578T breast; A498 renal; TK-10 renal; IGROV1 ovarian; DU-145 prostate; SN12C renal; K-562 leukemia; NCI-H226 lung; RXF 393 renal; UACC-62 melanoma; ACHN renal; 786-0 renal; RPMI-8226 leukemia; COLO 205 colon; UACC-257 melanoma.

What all share (experiment): DTP human tumour cell line panel, 48 h

Take `OC(CNc1ccnc2cc(Cl)ccc12)CNC1CCCCC1` (centres undefined): in the test with MDA-MB-468 breast, the GI50 was 1700 nM and the TGI came out at 3790 nM.
The like results for `C=C1C(=O)O[C@H]2[C@H]1CC/C(CNS(=O)(=O)c1cccc3ccccc13)=C\CC[C@@]1(C)O[C@@H]21` were, in that order, 1090 nM and 3150 nM.
The like results for `COc1ccc(/C=C/C(=O)c2cc3c(N)c(C(=O)Nc4ccccc4)sc3nc2C)cc1` were, in that order, 179 nM and above 41700 nM.
The like results for `CCC(C)[C@H]1C(=O)O[C@H](C(C)C)C(=O)N(C)[C@@H](C(C)C)C(=O)O[C@H](C(C)C)C(=O)N(C)[C@@H](C(C)C)C(=O)O[C@H](C(C)C)C(=O)N1C` (some centres undefined) were, in that order, 542 nM and above 10000 nM.
On to `NCCCCN(Cc1nc2ccccc2[nH]1)[C@H]1CCCc2cccnc21`, for which, in the test on MDA-MB-468 breast, the GI50 is 10400 nM and the TGI is 30800 nM.
The like results for `CCCCCCCCCCCC[n+]1ccc(C(N)=O)cc1` were, in that order, 633 nM and 2920 nM.
The like results for `O=C(/C=C/c1ccc(C(F)(F)F)cc1)c1ccc(Nc2nc(NCCO)nc(N3CCOCC3)n2)cc1` were, in that order, 1800 nM and 3860 nM.
The like results for `Clc1ccc2c(c1)-c1ccccc1C1=NCCN12` were, in that order, 1540 nM and 3150 nM.
For `OC(CNC1CCCC1)Cn1c2ccccc2c2ccccc21` (centres undefined), in the test with MDA-MB-468 breast, the GI50 is 40700 nM and the TGI was above 100000 nM.
Regarding `N=C(N)c1ccc(-c2ccc(-c3cccs3)s2)nc1`, in the test with MDA-MB-468 breast, the GI50 was 73.2 nM and the TGI came out at 779 nM.
The like results for `C=CC(=O)Nc1cccc(C)c1Nc1ncc2cc(-c3c(Cl)c(OC)cc(OC)c3Cl)ccc2n1` were, in that order, 1870 nM and 6280 nM.
On to `O=Cc1ccc(O)c2ncccc12`, for which, in the test with MDA-MB-468 breast, the GI50 was 4140 nM and the TGI was above 100000 nM.
For `CCCCCN(CCCCC)CC(O)c1cc2c(c3ccccc13)CCCC2` (centres undefined), in the test on MDA-MB-468 breast, the GI50 is 4340 nM and 12200 nM; the TGI is 17200 nM and 28000 nM.
Take `COC(=O)[C@@H](C)C[C@H](Cc1ccccc1)NC(=O)c1csc([C@@H](C[C@H](C(C)C)N(C)C(=O)C2(NC(=O)[C@H]3CCCCN3C)CC2)OC(C)=O)n1`: in the test on MDA-MB-468 breast, the GI50 was 2.51 nM.
As to `CN1CCn2c(c(Sc3ccc(C(=O)NO)cc3)c3ccccc32)C1=O`, in the test with MDA-MB-468 breast, the GI50 was 1430 nM and the TGI was found to be 3250 nM.
The like results for `CS(=O)(=O)Nc1cc(-c2ccc3ncnc(Nc4ccc5c(cnn5Cc5ccccc5F)c4)c3c2)cnc1Cl` were, in that order, 609 nM and 2560 nM.
The like results for `O=C(CCCCCCC(=O)Nc1ccc2c(c1)/C(=C/c1ccc[nH]1)C(=O)N2)NO` were, in that order, 187 nM and 2090 nM.
The like results for `O=C(N/N=C\c1ccc(N(CCCl)CCCl)cc1Cl)c1cccnc1` were, in that order, 45.8 nM and 328 nM.
Take `CCCN(CCC)C(=O)[C@H](CC)[C@@H]1CC[C@@H](C)[C@@H]([C@H](C)[C@@H](O)[C@@H](C)C(=O)[C@H](CC)C2O[C@]3(C=C[C@@H](O)[C@]4(CC[C@@](C)([C@H]5CC[C@](O)(CC)[C@H](C)O5)O4)O3)[C@H](C)C[C@@H]2C)O1` (some centres undefined): in the test on MDA-MB-468 breast, the GI50 is 1720 nM and the TGI came out at 5330 nM.
On to `Cc1ccc(S(=O)(=O)Nc2nc3ccccc3nc2Nc2ccc3nsnc3c2)cc1`, for which, in the test with MDA-MB-468 breast, the GI50 is 3060 nM and 2660 nM; the TGI was 13500 nM and 9260 nM.
Take `O=C1/C(=C/c2ccc(Cl)cc2)COc2ccc(O)c(O)c21`: in the test with MDA-MB-468 breast, the GI50 is 1430 nM and the TGI is 3220 nM.
In the case of `CC1=C(CCC=O)C2=C(C)C3(CC3)[C@@](C)(O)C(=O)C2=C1`, the GI50 is 756 nM with CCRF-CEM leukemia; 94.6 nM in the test with SK-MEL-5 melanoma; 210 nM in the test with EKVX NSCLC; 101 nM in the test with M14 melanoma; 140 nM in the test with LOX IMVI melanoma; 118 nM in the test with HL-60(TB) leukemia. Besides, the GI50 with NCI/ADR-RES ovarian is 104 nM; with T-47D breast, 108 nM; in the test on SK-OV-3 ovarian, 108 nM; with UO-31 renal, 53.4 nM; in the test on CAKI-1 renal, 123 nM; in the test with BT-549 breast it was 35.8 nM. The GI50 was 100 nM in the test with MDA-MB-468 breast; 380 nM in the test with MOLT-4 leukemia; 65.6 nM with OVCAR-5 ovarian; 135 nM in the test on MALME-3M melanoma; 222 nM in the test with SF-295 CNS; 167 nM with NCI-H522 lung. In addition, the GI50 is 159 nM in the test with A549 NSCLC; 121 nM in the test on HCC-2998 colon; 237 nM with SR leukemia; 302 nM in the test on HS 578T breast; 269 nM in the test on A498 renal; 218 nM in the test with TK-10 renal. In addition, the 50% growth inhibitory concentration (GI50) with IGROV1 ovarian is 62.5 nM; in the test on DU-145 prostate, 37.6 nM; with SN12C renal it was 167 nM; in the test with K-562 leukemia, 330 nM; in the test with NCI-H226 lung it was 157 nM; in the test on RXF 393 renal it was 20.7 nM. In addition, the GI50 in the test on UACC-62 melanoma is 158 nM; with ACHN renal, 78.9 nM; in the test on 786-0 renal it was 110 nM; in the test with RPMI-8226 leukemia, 444 nM; in the test with COLO 205 colon it was 144 nM; with UACC-257 melanoma, 208 nM. The TGI in the test with CCRF-CEM leukemia was above 100000 nM; in the test with SK-MEL-5 melanoma, 240 nM; in the test with EKVX NSCLC it was 546 nM; with M14 melanoma, 254 nM; in the test with LOX IMVI melanoma, 350 nM; with NCI/ADR-RES ovarian, 330 nM. Moreover, the TGI in the test on T-47D breast stood at 882 nM; with SK-OV-3 ovarian, 606 nM; with UO-31 renal it was 263 nM; in the test with CAKI-1 renal, 855 nM; in the test on BT-549 breast it was 157 nM; with MDA-MB-468 breast, 239 nM. Besides, the TGI was 416 nM in the test on OVCAR-5 ovarian; 266 nM with MALME-3M melanoma; 1110 nM in the test on SF-295 CNS; 369 nM in the test with NCI-H522 lung; 4210 nM in the test on A549 NSCLC; 261 nM with HCC-2998 colon. In addition, the TGI in the test with SR leukemia amounted to 1120 nM; in the test with HS 578T breast, 1280 nM; with A498 renal, 616 nM; in the test with TK-10 renal it was 1080 nM; in the test with IGROV1 ovarian it was 312 nM; in the test with DU-145 prostate, 845 nM. For the same compound, the concentration for total growth inhibition (TGI) with SN12C renal was found to be 755 nM; in the test on NCI-H226 lung, 587 nM; in the test on RXF 393 renal, 39.4 nM; in the test on UACC-62 melanoma it was 315 nM; with ACHN renal, 636 nM; in the test with 786-0 renal, 440 nM. The TGI is above 100000 nM in the test with RPMI-8226 leukemia, 303 nM with COLO 205 colon and 464 nM in the test on UACC-257 melanoma.
For `Oc1ccc(N=Nc2ccc(N=Nc3ccccc3)cc2)cc1`, in the test with MDA-MB-468 breast, the GI50 is 4410 nM and the TGI stood at 19600 nM.
For `CN(C)c1ccc(O)c2c1C[C@H]1C[C@H]3[C@H](N(C)C)C(=O)C(C(N)=O)=C(O)[C@@]3(O)C(=O)C1=C2O`, in the test with MDA-MB-468 breast, the GI50 is 3240 nM and the TGI is 35100 nM.
Take `COc1ccc([C@H]2[C@H](O)C(=O)N2c2cc(OC)c(OC)c(OC)c2)cc1Cl`: in the test on MDA-MB-468 breast, the GI50 was below 10 nM and the TGI is above 100000 nM.
The like results for `COC(=O)[C@@]1(O)C[C@H]2O[C@]1(C)n1c3ccccc3c3c4c(c5c6ccccc6n2c5c31)C(=O)NC4` were, in that order, 1340 nM and 3060 nM.
The like results for `N#CC1=C(N)Oc2c(sc3c(F)cccc23)C1c1ccc(F)cc1` (centres undefined) were, in that order, 452 nM and 15400 nM.
The like results for `C=C1CC[C@@H]2[C@](C)(COC(C)=O)[C@H](OC(C)=O)CC[C@@]2(C)[C@@H]1C/C=C1/C(=O)OC[C@H]1OC(C)=O` were, in that order, 2040 nM and 5690 nM.
As to `CCOC(=O)C#Cc1c(CC(=O)OCC)nnn1[C@H]1O[C@@H](CO)[C@@H]2OC(C)(C)O[C@@H]21`, in the test on MDA-MB-468 breast, the GI50 is 2090 nM and the TGI stood at 4500 nM.
The like results for `COc1ccc2nc(C)cc(Nc3ccccc3O)c2c1` were, in that order, 13800 nM and 45600 nM.
The like results for `COCCNC(=O)c1ccc(-c2nc3ccc4[nH]ncc4c3c3c2CCCC3)cc1` were, in that order, 2460 nM and 50000 nM.
The like results for `COc1cccc2c(=O)c3c(sc12)c(NCCN(C)C)nc1ccccc13` were, in that order, 1500 nM and 3150 nM.
Take `Cc1nn(-c2nc3ccccc3[nH]2)c2c1C(c1ccc3c(c1)OCO3)CC(=O)N2` (centres undefined): in the test with MDA-MB-468 breast, the GI50 is 2320 nM and the TGI was 6760 nM.
The like results for `COc1ccc2c(c1)OC(N)=C(C#N)C2c1ccc(F)cc1` (centres undefined) were, in that order, 401 nM and 33900 nM.
